{
  "source": "patent US8350084B2",
  "about": "“Alpha-(N-sulfonamido)acetamide compound as an inhibitor of beta amyloid peptide production” (priority 2007, dated 2013)",
  "key": {"brain Aβ40": {"test_system": "brain Aβ40", "assay": "Rat brain Abeta40 assay (252-TSD ELISA)", "settings": "for Terminal Brain Abeta 40 5 hr: 5 hr after fourth dose; for Terminal Brain Abeta 40 12 hr: 12 hr after third dose; for Terminal Brain Abeta 40 24 hr: 24 hr after third dose"}, "[1]": {"target": "T1, human pregnane-X receptor (Homo sapiens, UniProt O75469)", "T1 construct": "expressed in transfected cells; host or cells: HepG2 cells (ATCC), transient transfection with Lipofectamine 2000", "T1 sequence (O75469 1-434)": "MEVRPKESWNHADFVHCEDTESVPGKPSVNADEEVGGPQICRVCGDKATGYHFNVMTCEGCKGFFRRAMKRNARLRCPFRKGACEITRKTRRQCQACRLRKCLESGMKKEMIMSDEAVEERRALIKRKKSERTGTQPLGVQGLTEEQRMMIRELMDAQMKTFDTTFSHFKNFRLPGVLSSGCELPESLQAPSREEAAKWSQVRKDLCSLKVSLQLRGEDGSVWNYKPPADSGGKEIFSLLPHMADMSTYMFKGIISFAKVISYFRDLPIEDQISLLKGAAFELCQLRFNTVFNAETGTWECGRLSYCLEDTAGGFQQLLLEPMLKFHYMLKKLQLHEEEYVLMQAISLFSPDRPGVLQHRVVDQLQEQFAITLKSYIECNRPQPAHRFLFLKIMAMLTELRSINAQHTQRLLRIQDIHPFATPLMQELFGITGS", "assay": "PXR transactivation assay", "assay_type": "cell-based", "settings": "hPXR transactivation, transfected HepG2 cells", "excerpt": "Pregnane X receptor (PXR) is a nuclear hormone receptor principally responsible for the induction of cytochrome P450 (CYP) 3A4, which plays a major role in metabolizing many clinically prescribed drugs. It is well known that the induction of CYP3A4 can cause either drug-drug interaction by increasing the metabolic clearance of co-administered CYP3A4 substrates (Bertilsson, G. et al., Proc. Nat. Acad. Sci. USA (1998) 95: 12208-12213; Lehmann, J. M. et al., J. Clin. Invest. (1998) 102: 1016-1023) or can cause loss of drug exposure due to autoinduction. Characterizing the induction potential of discovery or development drug candidates has become an important screen throughout the pharmaceutical industry. A PXR transactivation assay is used to assess the induction potential of CYP3A4, and a cytotoxicity assay of HepG2 cells is used to monitor the assay interference due to cytotoxicity.\nCell culture medium used is DMEM. Lipofectamine 2000, PBS, trypsin-EDTA (0.25%), and penicillin-streptomycin were purchased from GIBCO/Invitrogen (Carlsbad, Calif.). […]\nCells in each flask are washed with PBS and 4 mL of Trypsin-EDTA (0.25%) is added and incubated for one minute at room temperature. […] Cells are then counted and diluted in media to 3.0×10^5 cells/mL. […] After fifteen minutes, plates are read on a Viewlux (Perkin-Elmer) plate reader. […]"}, "[2]": {"settings": "female, Sprague-Dawley, rat, in vivo", "protocol": "Animals were euthanized 12 or 24 hours after the third dose or 5 hours after the fourth dose."}, "proximal duodenum": {"test_system": "proximal duodenum", "assay": "Rat duodenum histopathology (GI toxicity)", "assay_type": "in vivo", "settings": "100 mg/kg/day once daily for 4 days", "description": "(§1) Female Harlan Sprague-Dawley rats (˜200-250 g) were dosed daily by oral gavage with a dosing vehicle of 99% PEG-400, 1% Tween-80 at 4 mL/kg in the morning. […] Plasma was obtained after centrifugation. […] CSF samples were centrifuged to remove cells or debris prior to dilution at 1:2 in 4% BSA and frozen for subsequent analysis.\nFollowing euthanasia by CO2 asphyxiation, approximately 3 cm long sections of the proximal duodenum were removed from the abdomen, rinsed with ice cold Phosphate buffered saline and placed into 10% buffered formalin prior to sectioning. Tissue sections of the duodenum were embedded in liquid paraffin, mounted onto blocks, and cut into triplicate sagittal (cross-luminal) ring sections and stained using the Periodic acid Schiff's base method prior to microscopic evaluation. All animals survived until scheduled necropsy was performed."}, "CYP3A4 mRNA": {"test_system": "CYP3A4 mRNA", "settings": "human, 3 days, 20 μM", "protocol": "Fa2N-4 cells and MFE Support Media F were provided by XenoTech, LLC (Lenexa, Kans.).\nFa2N-4 cells were supplied on 12-well, collagen-coated plates at a seeding density of 0.67×10^6 cells per well. Upon the receipt of the cells, the media were changed and the cells maintained overnight in a humidified, CO2-supplied incubator. After this adaptation period, the cells were examined under a light microscope and a determination was made as to whether the cells were morphologically normal and suitable for use. During the treatment period, the cells were visually inspected on a daily basis; cellular morphology, confluency, and signs of toxicity due to the test article were documented as necessary. […] Fa2N-4 cells were exposed to the test articles for a total of 3 days. The culture medium was replaced daily with fresh medium containing the test articles. After a total of ˜72 hours of exposure, medium was aspirated and the cells washed once with warm phosphate buffered saline solution before adding the cell lysis buffer (Qiagen, Valencia, Calif.)."}, "[3]": {"test_system": "γ-secretase inhibitor binding sites in the brain", "assay": "Gamma-secretase site occupancy in rat brain", "assay_type": "in vivo", "settings": "single dose 1 mg/kg, by 24 hours", "description": "as §1\nBrain sections were cut coronally at a thickness of 20 μm on a cryostat and thaw-mounted onto Superfrost Plus slides. Sections were saved at the level of the rostral hippocampus, with 3 sections per slide at intervals of about 120 μm, and frozen at −20° C. until use. For occupancy studies, brain sections were warmed to room temperature, dried, incubated for 10 minutes in 50 mM HEPES buffer, pH 7.4, then transferred to the same buffer containing 1.5 nM [^3H]IN973 (Goldstein, M. E. et al., J. Pharmacol. Exp. Ther. (2007) 323:102-108) or [^3H] (R)-4-((N-(1-amino-4-methyl-1-oxopentan-2-yl)-4-chlorophenylsulfonamido)methyl)-N-(2-methoxyethyl)benzamide and incubated at room temperature for 10 minutes. To define nonspecific binding, adjacent sections were incubated in buffer containing [^3H]IN973 or [^3H] […] Optical densities (expressed as digital light units per square millimeter) over areas of interest were measured and expressed as a percent of vehicle control."}, "mouse Notch1-ΔE": {"test_system": "mouse Notch1-ΔE", "settings": "Notch IC50 / Aβ40 IC50, 95% CI=163-232", "protocol": "Since inhibition of Notch signaling causes undesired, mechanism-based side effects, a cellular assay for Notch1-ΔE signaling was used to counterscreen γ-secretase inhibitors.\nHela cells were maintained in DMEM (GibcoBRL) containing 10% FBS (GibcoBRL), Penicillin/Streptomycin (GibcoBRL) and 2 mM L-glutamine (GibcoBRL). Cells were transiently transfected using TransIT-HelaMONSTER (Mires) according to the manufacturer's directions. Hela cells (ATCC) were plated 16 hours before transfection at a density of 4×10^6 cells per T175 flask in Hela growth media (DMEM (high glucose with HEPES) with glutamine, penicillin, streptomycin and 10% fetal bovine serum). […] Cells were plated into 96 well black Clearview plates (Packard) at a volume of 200 μL/well (1×10^4 cells) and incubated at 37° C. for 1.5 hours to allow cells to adhere to the plates. Test compounds were initially diluted in a 96 well polypropylene plate in 100% DMSO. […] Diluted compound solutions (10 μL) were added to the cell plate yielding a final 0.1% DMSO concentration. Cell plates containing compound were incubated overnight at 37° C. […] The plate was incubated at room temperature for 10 minutes before black backing was attached to the bottom of the plate and the signal was read on a TopCount (Packard). […]"}},
  "note": "Entries after “also recorded” stand apart in the source; their conditions may differ.",
  "data": [
    {"smiles": "NC(=O)[C@@H](CCC(F)(F)F)N(Cc1ccc(-c2ncon2)cc1F)S(=O)(=O)c1ccc(Cl)cc1", "note": "[(2R)-2-[[(4-chlorophenyl)sulfonyl][[2-fluoro-4-(1,2,4-oxadiazol-3-yl)phenyl]methyl]amino]-5,5,5-trifluoropentanamide]", "values": [
      {"measurement": "Terminal Brain Abeta 40 5 hr", "setting": "brain Aβ40; Study No. 1, 3 mg/kg/day", "result": 39, "unit": "% Veh"},
      {"measurement": "Terminal Brain Abeta 40 12 hr", "setting": "brain Aβ40; Study No. 1, 3 mg/kg/day", "result": 35, "unit": "% Veh"},
      {"measurement": "Terminal Brain Abeta 40 24 hr", "setting": "brain Aβ40; Study No. 1, 3 mg/kg/day", "result": 92, "unit": "% Veh"},
      {"measurement": "Terminal Brain Abeta 40 5 hr", "setting": "brain Aβ40; Study No. 1, 10 mg/kg/day", "result": 12, "unit": "% Veh"},
      {"measurement": "Terminal Brain Abeta 40 12 hr", "setting": "brain Aβ40; Study No. 1, 10 mg/kg/day", "result": 9, "unit": "% Veh"},
      {"measurement": "Terminal Brain Abeta 40 24 hr", "setting": "brain Aβ40; Study No. 1, 10 mg/kg/day", "result": 28, "unit": "% Veh"},
      {"measurement": "Terminal Brain Abeta 40 5 hr", "setting": "brain Aβ40; Study No. 1, 30 mg/kg/day", "result": 8, "unit": "% Veh"},
      {"measurement": "Terminal Brain Abeta 40 12 hr", "setting": "brain Aβ40; Study No. 1, 30 mg/kg/day", "result": 9, "unit": "% Veh"},
      {"measurement": "Terminal Brain Abeta 40 24 hr", "setting": "brain Aβ40; Study No. 1, 30 mg/kg/day", "result": 13, "unit": "% Veh"},
      {"measurement": "Terminal Brain Abeta 40 5 hr", "setting": "brain Aβ40; Study No. 2, 3 mg/kg/day", "result": 16, "unit": "% Veh"},
      {"measurement": "Terminal Brain Abeta 40 12 hr", "setting": "brain Aβ40; Study No. 2, 3 mg/kg/day", "result": 34, "unit": "% Veh"},
      {"measurement": "Terminal Brain Abeta 40 24 hr", "setting": "brain Aβ40; Study No. 2, 3 mg/kg/day", "result": 94, "unit": "% Veh"},
      {"measurement": "Terminal Brain Abeta 40 5 hr", "setting": "brain Aβ40; Study No. 2, 10 mg/kg/day", "result": 6, "unit": "% Veh"},
      {"measurement": "Terminal Brain Abeta 40 12 hr", "setting": "brain Aβ40; Study No. 2, 10 mg/kg/day", "result": 4, "unit": "% Veh"},
      {"measurement": "Terminal Brain Abeta 40 24 hr", "setting": "brain Aβ40; Study No. 2, 10 mg/kg/day", "result": 23, "unit": "% Veh"},
      {"measurement": "Terminal Brain Abeta 40 5 hr", "setting": "brain Aβ40; Study No. 2, 30 mg/kg/day", "result": 6, "unit": "% Veh"},
      {"measurement": "Terminal Brain Abeta 40 12 hr", "setting": "brain Aβ40; Study No. 2, 30 mg/kg/day", "result": 4, "unit": "% Veh"},
      {"measurement": "Terminal Brain Abeta 40 24 hr", "setting": "brain Aβ40; Study No. 2, 30 mg/kg/day", "result": 15, "unit": "% Veh"},
      {"measurement": "Terminal Brain Abeta 40 5 hr", "setting": "brain Aβ40; Study No. 2, 100 mg/kg/day", "result": 3, "unit": "% Veh"},
      {"measurement": "Terminal Brain Abeta 40 12 hr", "setting": "brain Aβ40; Study No. 2, 100 mg/kg/day", "result": 3, "unit": "% Veh"},
      {"measurement": "Terminal Brain Abeta 40 24 hr", "setting": "brain Aβ40; Study No. 2, 100 mg/kg/day", "result": 7, "unit": "% Veh"},
      {"measurement": "Day 7 5 hr Brain Aβ40", "setting": "brain Aβ40; Study No. 3, 30 mg/kg/day", "result": 13, "unit": "% Veh"},
      {"measurement": "Day 7 5 hr Brain Aβ40", "setting": "brain Aβ40; Study No. 3, 300 mg/kg/day", "result": 13, "unit": "% Veh"},
      {"measurement": "EC20A (20% of the Rifampicin response at 10 μM)", "setting": "[1]", "result": 6.9, "unit": "µM"},
      {"measurement": "EC60A (60% of the Rifampicin response at 10 μM)", "setting": "[1]", "result": "greater than 16.7 μM"},
      {"measurement": "compound exposures after 3 doses relative to exposures after the initial dose", "setting": "[2]", "result": "≤ 2", "unit": "fold"},
      {"measurement": "histological evaluation of duodenal tissue", "setting": "proximal duodenum", "result": "⅓ rats dosed with 100 mg/kg/day had mild lesions; also recorded: slight goblet cell metaplasia"},
      {"measurement": "induction as % of the induction response caused by rifampicin", "setting": "CYP3A4 mRNA", "result": 22, "unit": "%"},
      {"measurement": "brain γ-secretase site occupancy", "setting": "[3]", "result": "gradually returned to baseline values"},
      {"measurement": "Notch/APP selectivity", "setting": "mouse Notch1-ΔE", "result": 193, "unit": "X"}
    ]}
  ]
}
